Residues, ends and D or L forms follow the SMILES beside them. *: point of attachment. 5FAM = O=C1OC2(c3ccc(O)cc3Oc3cc(O)ccc32)c2ccc(C(=O)*)cc21; X1 = O=C(O)C(C(=O)O)*
Test system: CSK SH2 domain
Assay: FP binding assay, CSK SH2 domain
Conditions: 100 nM peptide, three independent experiments
Protocol: buffer and stored in 5 mL binding buffer at 4°C. His-tagged 3C protease (0.5 mg; EMBL) was added to the pooled eluted fractions and dialysed using Spectra Por Dialysis Tubing (MWCO 6-8 kDa, 23 mm; Spectrum Labs) in 1 L of binding buffer at 4°C for 3 hours, then overnight in fresh buffer. A new column was prepared by loading 2 mL Ni-NTA Agarose (Invitrogen) as a 50% slurry in EtOH. The column was washed with 10 mL H2O to remove the EtOH and equilibrated with 10 mL binding buffer. The protein/3C protease mixture was loaded onto the column and incubated for 1 hour at 4°C on a rocker. […] Protein purification was monitored by SDS-PAGE using NuPAGE 4-12% Bis-Tris Protein Gels (Invitrogen) run in MOPS buffer (50 mM MOPS, 50 mM Tris-HCl pH 7.7, 1 mM EDTA, 0.1% SDS) followed by Coomassie staining using Coomassie Brilliant Blue (Roth). […]
4. Fluorescence polarization
Fluorescence polarization (FP) was used to measure the binding of FAM-labelled peptides to the SHP2 C-SH2, SHP2 N-SH2, SHP2 PTP, CSK SH2 or Src SH2 domains. […]
concentration of 100 nM in a final volume of 200 µL. […] The FP was immediately measured on a Synergy H1 Microplate Reader (BioTek) with the excitation and emission monitored at 485 nm and 528 nm, respectively, over 30 minutes. FP values were automatically calculated by the Gen5 3.03 (BioTek) software associated with the microplate reader. […]

CC[C@H](C)[C@H](NC(=O)[C@@H](NC(=O)[C@H](C)NC(=O)[C@H](Cc1ccc(OC(C(=O)O)C(=O)O)cc1)NC(=O)[C@H](CCC(=O)O)NC(=O)[C@@H](NC(=O)[C@H](CCC(N)=O)NC(=O)c1ccc2c(c1)C(=O)OC21c2ccc(O)cc2Oc2cc(O)ccc21)[C@@H](C)O)[C@@H](C)O)C(=O)N[C@@H](CCCCN)C(=O)N[C@@H](Cc1c[nH]cn1)C(=O)N1CCC[C@H]1C(N)=O [peptide 26] (5FAM-QTEY(X1)ATIKHP-NH2)
binding to CSK SH2 domain compared to SHP2 C‐SH2 domain: at least two orders of magnitude weaker

Source: article PMC12118337, “Development of a Peptide Inhibitor Targeting the C‐SH2 Domain of the SHP2 Phosphatase” (Chembiochem, 2025)
